Laboratory results reported in ChEMBL document CHEMBL3045272, “Synthesis and fungicidal activities of novel bis(trifluoromethyl)phenyl-based strobilurins” (J Agric Food Chem, 2008).
In brackets after ≈: the same amount, converted by molar mass.

What was measured:
[1] = system: Blumeria graminis; assay: Fungicidal activity against Blumeria graminis infected compound pre-treated wheat plants assessed as disease preventive activity at 100 ppm measured after 1 or 2 weeks; type: functional
[2] = system: Blumeria graminis; assay: Fungicidal activity against Blumeria graminis infected compound pre-treated wheat plants assessed as disease preventive activity at 3.1 ppm measured after 1 or 2 weeks; type: functional
[3] = system: Blumeria graminis; assay: Fungicidal activity against Blumeria graminis infected compound pre-treated wheat plants assessed as disease preventive activity at 1.5 ppm measured after 1 or 2 weeks; type: functional
[4] = system: Blumeria graminis; assay: Fungicidal activity against Blumeria graminis infected compound pre-treated wheat plants assessed as disease preventive activity at 500 ppm measured after 1 or 2 weeks; type: functional
[5] = system: Blumeria graminis; assay: Fungicidal activity against Blumeria graminis infected compound pre-treated wheat plants assessed as disease preventive activity at 6.2 ppm measured after 1 or 2 weeks; type: functional
[6] = system: Podosphaera fuliginea; assay: Fungicidal activity against Podosphaera fuliginea infected compound pre-treated cucumber plants assessed as disease preventive activity at 1.56 mg/L measured after 1 or 2 weeks; type: functional
[7] = system: Podosphaera fuliginea; assay: Fungicidal activity against Podosphaera fuliginea infected cucumber plants exposed to compound treatment 1 day post infection assessed as disease curative activity at 6.25 mg/L measured after 1 or 2 weeks; type: functional
[8] = system: Podosphaera fuliginea; assay: Fungicidal activity against Podosphaera fuliginea infected cucumber plants exposed to compound treatment 1 day post infection assessed as disease curative activity at 1.56 mg/L measured after 1 or 2 weeks; type: functional
[9] = system: Podosphaera fuliginea; assay: Fungicidal activity against Podosphaera fuliginea infected cucumber plants exposed to compound treatment 1 day post infection assessed as disease curative activity measured after 1 or 2 weeks; type: functional, organism-based
[10] = system: Blumeria graminis; assay: Fungicidal activity against Blumeria graminis infected compound pre-treated wheat plants assessed as disease preventive activity at 1.56 mg/L measured after 1 or 2 weeks; type: functional
[11] = system: Podosphaera fuliginea; assay: Fungicidal activity against Podosphaera fuliginea infected compound pre-treated cucumber plants assessed as disease preventive activity at 6.25 mg/L measured after 1 or 2 weeks; type: functional
[12] = system: Blumeria graminis; assay: Fungicidal activity against Blumeria graminis infected compound pre-treated wheat plants assessed as disease preventive activity at 6.25 mg/L measured after 1 or 2 weeks; type: functional
[13] = system: Blumeria graminis; assay: Fungicidal activity against Blumeria graminis infected wheat plants exposed to compound treatment 1 day post infection assessed as disease curative activity at 0.78 mg/L measured after 1 or 2 weeks; type: functional
[14] = system: Blumeria graminis; assay: Fungicidal activity against Blumeria graminis infected compound pre-treated wheat plants assessed as disease preventive activity at 3.12 mg/L measured after 1 or 2 weeks; type: functional
[15] = system: Blumeria graminis; assay: Fungicidal activity against Blumeria graminis infected compound pre-treated wheat plants assessed as disease preventive activity measured after 1 or 2 weeks; type: functional, organism-based
[16] = system: Podosphaera fuliginea; assay: Fungicidal activity against Podosphaera fuliginea infected cucumber plants exposed to compound treatment 1 day post infection assessed as disease curative activity at 0.78 mg/L measured after 1 or 2 weeks; type: functional
[17] = system: Podosphaera fuliginea; assay: Fungicidal activity against Podosphaera fuliginea infected compound pre-treated cucumber plants assessed as disease preventive activity at 0.78 mg/L measured after 1 or 2 weeks; type: functional
[18] = system: Podosphaera fuliginea; assay: Fungicidal activity against Podosphaera fuliginea infected compound pre-treated cucumber plants assessed as disease preventive activity at measured after 1 or 2 weeks; type: functional, organism-based
[19] = system: Podosphaera fuliginea; assay: Fungicidal activity against Podosphaera fuliginea infected cucumber plants exposed to compound treatment 1 day post infection assessed as disease curative activity at 3.12 mg/L measured after 1 or 2 weeks; type: functional
[20] = system: Podosphaera fuliginea; assay: Fungicidal activity against Podosphaera fuliginea infected compound pre-treated cucumber plants assessed as disease preventive activity at 3.12 mg/L measured after 1 or 2 weeks; type: functional
[21] = system: Blumeria graminis; assay: Fungicidal activity against Blumeria graminis infected wheat plants exposed to compound treatment 1 day post infection assessed as disease curative activity at 6.25 mg/L measured after 1 or 2 weeks; type: functional
[22] = system: Blumeria graminis; assay: Fungicidal activity against Blumeria graminis infected compound pre-treated wheat plants assessed as disease preventive activity at 0.78 mg/L measured after 1 or 2 weeks; type: functional
[23] = system: Blumeria graminis; assay: Fungicidal activity against Blumeria graminis infected wheat plants exposed to compound treatment 1 day post infection assessed as disease curative activity at 1.56 mg/L measured after 1 or 2 weeks; type: functional
[24] = system: Blumeria graminis; assay: Fungicidal activity against Blumeria graminis infected wheat plants exposed to compound treatment 1 day post infection assessed as disease curative activity at 3.12 mg/L measured after 1 or 2 weeks; type: functional
[25] = system: Blumeria graminis; assay: Fungicidal activity against Blumeria graminis infected wheat plants exposed to compound treatment 1 day post infection assessed as disease curative activity measured after 1 or 2 weeks; type: functional, organism-based

SMILES: CCO/C(=N\OCc1ccccc1/C(=C\OC)C(=O)OC)c1cc(C(F)(F)F)cc(C(F)(F)F)c1
- Activity [1]: 100%
- Activity [2]: 60%
- Activity [3]: 35%
- Activity [4]: 100%
- Activity [5]: 90%

SMILES: CNC(=O)/C(=N/OC)c1ccccc1CO/N=C(\OC)c1cc(C(F)(F)F)cc(C(F)(F)F)c1
- Activity [4]: 90%

SMILES: CO/N=C(/C1=NOCCO1)c1ccccc1CO/N=C(\OC)c1cc(C(F)(F)F)cc(C(F)(F)F)c1
- Activity [1]: 100%
- Activity [2]: 96%
- Activity [6]: 75%
- Activity [7]: 100%
- Activity [3]: 95%
- Activity [8]: 80%
- EC50 [9]: 0.8 mg/L (≈ 1.54 µM)
- EC90 [9]: 1.5 mg/L (≈ 2.89 µM)
- Activity [4]: 100%
- Activity [10]: 75%
- Activity [11]: 100%
- Activity [12]: 100%
- Activity [13]: 35%
- Activity [14]: 98%
- EC50 [15]: 0.9 mg/L (≈ 1.73 µM)
- EC90 [15]: 2 mg/L (≈ 3.85 µM)
- Activity [16]: 60%
- Activity [17]: 55%
- EC50 [18]: 0.8 mg/L (≈ 1.54 µM)
- EC90 [18]: 1.6 mg/L (≈ 3.08 µM)
- Activity [19]: 100%
- Activity [20]: 100%
- Activity [21]: 100%
- Activity [22]: 30%
- Activity [5]: 100%
- Activity [23]: 70%
- Activity [24]: 90%
- EC50 [25]: 1 mg/L (≈ 1.93 µM)
- EC90 [25]: 2.4 mg/L (≈ 4.62 µM)

SMILES: CO/N=C(/C(=O)OC)c1ccccc1CO/N=C(\OC)c1cc(C(F)(F)F)cc(C(F)(F)F)c1
- Activity [1]: 100%
- Activity [2]: 98%
- Activity [3]: 80%
- Activity [4]: 100%
- Activity [5]: 100%

SMILES: COC(=O)N(OC)c1ccccc1CO/N=C(\OC)c1cc(C(F)(F)F)cc(C(F)(F)F)c1
- Activity [1]: 100%
- Activity [2]: 60%
- Activity [3]: 10%
- Activity [4]: 100%
- Activity [5]: 80%

SMILES: CN/C(=N\OCc1ccccc1/C(=C\OC)C(=O)OC)c1cc(C(F)(F)F)cc(C(F)(F)F)c1
- Activity [1]: 100%
- Activity [2]: 65%
- Activity [3]: 25%
- Activity [4]: 100%
- Activity [5]: 90%

SMILES: CN/C(=N\OCc1ccccc1/C(=N\OC)C(=O)OC)c1cc(C(F)(F)F)cc(C(F)(F)F)c1
- Activity [1]: 100%
- Activity [2]: 90%
- Activity [3]: 70%
- Activity [4]: 100%
- Activity [5]: 93%

SMILES: CO/C=C(/C(=O)OC)c1ccccc1CO/N=C(\N)c1cc(C(F)(F)F)cc(C(F)(F)F)c1
- Activity [1]: 95%
- Activity [2]: 75%
- Activity [3]: 40%
- Activity [4]: 100%
- Activity [5]: 90%

SMILES: CO/N=C(/C(=O)OC)c1ccccc1CO/N=C(\N)c1cc(C(F)(F)F)cc(C(F)(F)F)c1
- Activity [4]: 30%

SMILES: CCO/C(=N\OCc1ccccc1/C(=N\OC)C(=O)OC)c1cc(C(F)(F)F)cc(C(F)(F)F)c1
- Activity [1]: 100%
- Activity [2]: 50%
- Activity [3]: 15%
- Activity [4]: 100%
- Activity [5]: 80%

SMILES: CCS/C(=N\OCc1ccccc1/C(=C\OC)C(=O)OC)c1cc(C(F)(F)F)cc(C(F)(F)F)c1
- Activity [4]: 85%

SMILES: CCS/C(=N\OCc1ccccc1/C(=N\OC)C(=O)OC)c1cc(C(F)(F)F)cc(C(F)(F)F)c1
- Activity [4]: 85%
